Test system: patients with advanced solid tumors
Experiment: Treatment-related adverse events (CTCAE v5.0), phase I dose escalation
Format: in vivo
Excerpt: This study was a single‐arm, dose‐escalation phase I trial conducted in Sun Yat‐sen University Cancer Center in China. This study assessed CVL218 in patients with histologically or cytologically confirmed advanced solid tumors who were in PD after standard therapeutic regimens or lacked standard treatment options. Inclusion criteria included: age 18–75 years; with at least one measurable and evaluable target lesion per Response Evaluation Criteria in Solid Tumors 1.1 (RECIST 1.1); ECOG performance status of 0 or 1; adequate hematological, renal, cardiac, and hepatic functions and a life expectancy ≥12 weeks. Key exclusion criteria included prior usage of PARP inhibitors; allergic to the research drug or its components; with active, unstable systemic diseases or active, uncontrolled infection; a history of other malignancies within 5 years, and pregnant or lactating women.
CVL218 was administered orally, and this dose‐escalation trial included nine dose levels: 100 mg QD (50 mg BID), 200 mg QD (100 mg BID), 400 mg QD (200 mg BID), 700 mg QD (350 mg BID), 1000 mg QD (500 mg BID), 1200 mg QD (600 mg BID), 1400 mg QD (700 mg BID), 1700 mg QD (850 mg BID), and 2000 mg QD (1000 mg BID). Patients enrolled in the study received a single oral dose on the first day, followed by continuous multiple dosing (twice a day taking 12 h apart) after 72 h, with the treatment cycle lasting 4 weeks. The period during which patients received a single dose is designated as cycle 0 (C0), lasting 72 h. After this period, patients begin multiple dosing, referred to as cycle 1 (C1). An initial accelerated titration design was employed for the three lowest dose groups, and the “3+3” design was applied starting with the 300 mg BID cohort.
The primary objectives were to assess safety and tolerability as well as to determine the MTD, DLT, and dose recommended for further study. DLT was defined as any of the following events occurring during cycle 0 (including 72 h wash‐out period after a single dose) and cycle 1 per Common Terminology Criteria for Adverse Events (CTCAE) version 5.0: grade 4 anemia; grade 4 neutropenia; grade 3 neutropenia with fever ≥38.5°C; grade 4 thrombocytopenia; grade 3 thrombocytopenia associated with bleeding; grade ≥2 neurotoxicity; any other grade ≥3 nonhematological toxicities (excluding alopecia). The secondary objectives were to assess the PK and preliminary efficacy of CVL218.
Subjects who received at least one dose of CVL218 with postadministration safety records were included in safety analysis set. Subjects who received at least one dose of CVL218 with at least one evaluable PK parameter were included in PK analysis set. Per‐protocol set were used for efficacy analysis. Descriptive statistics of safety were presented per CTCAE v5.0. The PK parameters T max and T 1/2 were shown as the median (min, max) and mean ± SD, respectively. A two‐sided p < 0.05 was considered to indicate statistical significance. Statistical analysis was performed by using GraphPad prism 8.0.2 and R‐4.3.3.

In the case of CNCc1ccc(-c2cc3cc(F)cc(C(N)=O)c3o2)cc1.Cl [CVL218], the Abdominal distension (600 mg BID, ≥G3) is reported as 0 n (%), the Abdominal pain (600 mg BID, ≥G3) is reported as 0 n (%) and the Abdominal pain upper (600 mg BID, ≥G3) is reported as 0 n (%). The Amylase increased (600 mg BID, ≥G3) was 0 n (%), the Anemia (600 mg BID, ≥G3) was 0 n (%) and the “Any AE related to study drug” value (600 mg BID, ≥G3) was 1 (25.0) n (%). For the same compound, the Asthenia (600 mg BID, ≥G3) was 0 n (%), the Blood system disorders (600 mg BID, ≥G3) was 0 n (%) and the Blood triglycerides increased (600 mg BID, ≥G3) was 0 n (%). The Cardiac disorders (600 mg BID, ≥G3) was 0 n (%), the Chest discomfort (600 mg BID, ≥G3) was 0 n (%) and the Constipation (600 mg BID, ≥G3) was 0 n (%). For the same compound, the Decreased appetite (600 mg BID, ≥G3) was 0 n (%), the Diarrhea (600 mg BID, ≥G3) was 0 n (%) and the Dizziness (600 mg BID, ≥G3) was 0 n (%). For the same compound, the Erectile dysfunction (600 mg BID, ≥G3) was 0 n (%), the Gastrointestinal disorders (600 mg BID, ≥G3) was 0 n (%) and the General disorders (600 mg BID, ≥G3) was 0 n (%). For the same compound, the Gingival bleeding (600 mg BID, ≥G3) was 0 n (%), the Granulocyte count increased (600 mg BID, ≥G3) was 0 n (%) and the Headache (600 mg BID, ≥G3) was 0 n (%). The Hypoalbuminemia (600 mg BID, ≥G3) was 0 n (%), the Infusion site pain (600 mg BID, ≥G3) was 0 n (%) and the Limb discomfort (600 mg BID, ≥G3) was 0 n (%). For the same compound, the Lipase increased (600 mg BID, ≥G3) was 0 n (%), the Metabolic disorders (600 mg BID, ≥G3) was 0 n (%) and the Musculoskeletal discomfort (600 mg BID, ≥G3) was 0 n (%). The Musculoskeletal disorders (600 mg BID, ≥G3) was 0 n (%), the Nausea (600 mg BID, ≥G3) was 0 n (%) and the Nervous system disorders (600 mg BID, ≥G3) was 0 n (%). For the same compound, the Neutrophil count decreased (600 mg BID, ≥G3) was 0 n (%), the Neutrophil count increased (600 mg BID, ≥G3) was 0 n (%) and the Palpitations (600 mg BID, ≥G3) was 0 n (%). For the same compound, the Protein urine present (600 mg BID, ≥G3) was 0 n (%), the Proteinuria (600 mg BID, ≥G3) was 0 n (%) and the Rash (600 mg BID, ≥G3) was 0 n (%). For the same compound, the “Renal & urinary disorders” value (600 mg BID, ≥G3) was 0 n (%), the Renal failure (600 mg BID, ≥G3) was 0 n (%) and the Reproductive disorders (600 mg BID, ≥G3) was 0 n (%). For the same compound, the Skin disorders (600 mg BID, ≥G3) was 0 n (%), the “Urinary occult blood positive” value (600 mg BID, ≥G3) was 0 n (%) and the Vomiting (600 mg BID, ≥G3) was 0 n (%). The WBC count decreased (600 mg BID, ≥G3) was 0 n (%), the WBC count increased (600 mg BID, ≥G3) was 0 n (%) and the Infusion site pain (700 mg BID, ALL) was 0 n (%). The WBC count increased (700 mg BID, ALL) was 0 n (%), the ALT increased (700 mg BID, ≥G3) was 0 n (%) and the AST increased (700 mg BID, ≥G3) was 0 n (%). The Abdominal distension (700 mg BID, ≥G3) was 0 n (%), the Abdominal pain (700 mg BID, ≥G3) was 0 n (%) and the Abdominal pain upper (700 mg BID, ≥G3) was 0 n (%). The Amylase increased (700 mg BID, ≥G3) was 0 n (%), the Anemia (700 mg BID, ≥G3) was 0 n (%) and the “Any AE related to study drug” value (700 mg BID, ≥G3) was 0 n (%). For the same compound, the Asthenia (700 mg BID, ≥G3) was 0 n (%), the Blood creatinine increased (700 mg BID, ≥G3) was 0 n (%) and the Blood system disorders (700 mg BID, ≥G3) was 0 n (%). For the same compound, the Blood triglycerides increased (700 mg BID, ≥G3) was 0 n (%), the Blood urea increased (700 mg BID, ≥G3) was 0 n (%) and the Cardiac disorders (700 mg BID, ≥G3) was 0 n (%). The Chest discomfort (700 mg BID, ≥G3) was 0 n (%), the Constipation (700 mg BID, ≥G3) was 0 n (%) and the Decreased appetite (700 mg BID, ≥G3) was 0 n (%). The Diarrhea (700 mg BID, ≥G3) was 0 n (%), the Dizziness (700 mg BID, ≥G3) was 0 n (%) and the Erectile dysfunction (700 mg BID, ≥G3) was 0 n (%). For the same compound, the Gastrointestinal disorders (700 mg BID, ≥G3) was 0 n (%), the General disorders (700 mg BID, ≥G3) was 0 n (%) and the Gingival bleeding (700 mg BID, ≥G3) was 0 n (%). The Granulocyte count increased (700 mg BID, ≥G3) was 0 n (%), the Headache (700 mg BID, ≥G3) was 0 n (%) and the Hypoalbuminemia (700 mg BID, ≥G3) was 0 n (%). The Infusion site pain (700 mg BID, ≥G3) was 0 n (%), the Laboratory test disorders (700 mg BID, ≥G3) was 0 n (%) and the Limb discomfort (700 mg BID, ≥G3) was 0 n (%). The Lipase increased (700 mg BID, ≥G3) was 0 n (%), the Metabolic disorders (700 mg BID, ≥G3) was 0 n (%) and the Musculoskeletal discomfort (700 mg BID, ≥G3) was 0 n (%). For the same compound, the Musculoskeletal disorders (700 mg BID, ≥G3) was 0 n (%), the Nausea (700 mg BID, ≥G3) was 0 n (%) and the Nervous system disorders (700 mg BID, ≥G3) was 0 n (%). The Neutrophil count decreased (700 mg BID, ≥G3) was 0 n (%), the Neutrophil count increased (700 mg BID, ≥G3) was 0 n (%) and the Palpitations (700 mg BID, ≥G3) was 0 n (%). For the same compound, the Protein urine present (700 mg BID, ≥G3) was 0 n (%), the Proteinuria (700 mg BID, ≥G3) was 0 n (%) and the Rash (700 mg BID, ≥G3) was 0 n (%). The “Renal & urinary disorders” value (700 mg BID, ≥G3) was 0 n (%), the Renal failure (700 mg BID, ≥G3) was 0 n (%) and the Reproductive disorders (700 mg BID, ≥G3) was 0 n (%). For the same compound, the Skin disorders (700 mg BID, ≥G3) was 0 n (%), the “Urinary occult blood positive” value (700 mg BID, ≥G3) was 0 n (%) and the Vomiting (700 mg BID, ≥G3) was 0 n (%). The WBC count decreased (700 mg BID, ≥G3) was 0 n (%), the WBC count increased (700 mg BID, ≥G3) was 0 n (%) and the Infusion site pain (850 mg BID, ALL) was 0 n (%). For the same compound, the WBC count increased (850 mg BID, ALL) was 1 (20.0) n (%), the ALT increased (850 mg BID, ≥G3) was 0 n (%) and the AST increased (850 mg BID, ≥G3) was 0 n (%). For the same compound, the Abdominal distension (850 mg BID, ≥G3) was 0 n (%), the Abdominal pain (850 mg BID, ≥G3) was 1 (20) n (%) and the Abdominal pain upper (850 mg BID, ≥G3) was 0 n (%). For the same compound, the Amylase increased (850 mg BID, ≥G3) was 0 n (%), the Anemia (850 mg BID, ≥G3) was 0 n (%) and the “Any AE related to study drug” value (850 mg BID, ≥G3) was 2 (40.0) n (%). For the same compound, the Asthenia (850 mg BID, ≥G3) was 0 n (%), the Blood creatinine increased (850 mg BID, ≥G3) was 2 (40.0) n (%) and the Blood system disorders (850 mg BID, ≥G3) was 0 n (%). For the same compound, the Blood triglycerides increased (850 mg BID, ≥G3) was 0 n (%), the Blood urea increased (850 mg BID, ≥G3) was 0 n (%) and the Cardiac disorders (850 mg BID, ≥G3) was 0 n (%). The Chest discomfort (850 mg BID, ≥G3) was 0 n (%), the Constipation (850 mg BID, ≥G3) was 0 n (%) and the Decreased appetite (850 mg BID, ≥G3) was 0 n (%). The Diarrhea (850 mg BID, ≥G3) was 0 n (%), the Dizziness (850 mg BID, ≥G3) was 0 n (%) and the Erectile dysfunction (850 mg BID, ≥G3) was 0 n (%). The Gastrointestinal disorders (850 mg BID, ≥G3) was 1 (20) n (%), the General disorders (850 mg BID, ≥G3) was 0 n (%) and the Gingival bleeding (850 mg BID, ≥G3) was 0 n (%). For the same compound, the Granulocyte count increased (850 mg BID, ≥G3) was 0 n (%), the Headache (850 mg BID, ≥G3) was 0 n (%) and the Hypoalbuminemia (850 mg BID, ≥G3) was 0 n (%). The Infusion site pain (850 mg BID, ≥G3) was 0 n (%), the Laboratory test disorders (850 mg BID, ≥G3) was 2 (40.0) n (%) and the Limb discomfort (850 mg BID, ≥G3) was 0 n (%). The Lipase increased (850 mg BID, ≥G3) was 0 n (%) and the Metabolic disorders (850 mg BID, ≥G3) was 0 n (%).
